Data reported in PubChem BioAssay AID720587 (Broad Institute, 2013).
The source made the active and inactive calls.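 The calls were made as follows: active = fitted curve reaches -35% activity change at a concentration below twice the top valid dose tested; inactive = the rest, including effects opposite to the expected direction.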

Columns and labels:
[1] = EWS/Fli1-dependent A673 cell killing, confirmation, CellTiter-Glo luminescence, cherry-pick retest (AID 720587); conditions: A673 Ewing sarcoma viability, CellTiter-Glo ATP luminescence, 72 h; at 26 µM (top of the series)
[2] = tested on: A673 Ewing sarcoma viability, CellTiter-Glo ATP luminescence, 72 h; assay: as above

SMILES | activity change, negative = cytotoxicity [1] | AC35 [2]
CO[C@H]1CN(C)C(=O)c2cc(NC(=O)NC(C)C)ccc2OC[C@H](C)N(Cc2ccc(-c3ccccn3)cc2)C[C@@H]1C | -4.3% (inactive) | –
CC(NC(=O)c1ccco1)c1nc(-c2ccc(C(C)(C)C)cc2)no1 (stereo not given) | -2.68% (inactive) | –
COc1cc(/C=N/NS(=O)(=O)c2ccc3ccccc3c2)ccc1OCc1ccc(C(=O)O)cc1 | 0.172% (inactive) | –
O=C(O)c1ccc2cc(-c3ccccc3)[nH]c2c1 | -2.41% (inactive) | –
O=C1C(=O)N(CCS(=O)(=O)c2ccccc2)c2ccc(Cl)cc21 | -5.89% (inactive) | –
COc1ccc(S(=O)(=O)N2CCCc3nc(-c4ccc(F)cc4)ccc32)cc1 | – | 5.35 µM
COc1cccc(O)c1CN1CCC(C(=O)Nc2ccc(-c3cccc(C)c3)cc2)CC1 | – | 11 µM
COc1ccc([Si](C)(C)[C@H]2[C@H](CCO)O[C@@]3(C(=O)N(c4ccccc4)c4ccccc43)[C@@H]2C)cc1 | – | 7.61 µM
OCC1OC(n2ccc3c2ncn2ncnc32)C(O)C1O (stereo not given) | – | 0.693 µM
O=C(O)c1ccccc1C(=O)Nc1ccc(Oc2cccc3ccccc23)cc1 | – | 18.9 µM
O=c1c2ccccc2nc(/C=C/c2cc(Br)ccc2O)n1CCCO | – | 9.12 µM
COc1ccc(NC(=O)N2CCCCN3[C@H](CO)[C@H](c4ccc(C#CCC(C)C)cc4)[C@H]3C2)cc1 | – | 6.47 µM
C[C@@H]1CN([C@@H](C)CO)S(=O)(=O)c2ccc(C#Cc3ccncc3)cc2O[C@H]1CN(C)S(=O)(=O)c1ccccc1 | – | 12.4 µM
Nc1nc(=S)c2ncn([C@@H]3O[C@H](CO)[C@@H](O)[C@H]3O)c2[nH]1 | – | 1.53 µM
O=C1c2ccccc2C(=O)c2cc(N3CCCCC3)ccc21 | – | 16.8 µM
C(=N\Nc1nc2ccccc2[nH]1)/c1ccccn1 | – | 1.74 µM
N#C[C@H]1N[C@H](CO)[C@H]1c1ccc(C#Cc2ccc(F)cc2)cc1 | – | 20.2 µM
C[C@@H]1CN([C@H](C)CO)C(=O)Cc2cc(NC(=O)CCCCCC(=O)Nc3ccccc3N)ccc2O[C@@H]1CN(C)CC1CCCCC1 | – | 13.4 µM
COc1ccc(/C=C2\Oc3ccccc3C2=O)cc1 | – | 22.9 µM
CC1(C)N=C(N)N=C(N)N1c1ccc(CCCCc2ccccc2)cc1 | – | 0.65 µM
N#CC(=C1C=CC(=NO)C(Cl)=C1)c1ccccc1 | – | 5.59 µM
COc1ccc(-c2nc3c(s2)CCc2onc(-c4ccc(OC)cc4)c2-3)cc1 | – | 8 µM

SMILES | activity change, negative = cytotoxicity [1] | AC35 [2]
C[C@@H]1CN([C@@H](C)CO)S(=O)(=O)c2ccc(C#CC(C)(C)O)cc2O[C@H]1CN(C)Cc1ccc(-c2ccccc2)cc1 | – | 5.75 µM
C[C@@H]1CN([C@@H](C)CO)C(=O)c2cc(NC(=O)Nc3ccccc3)ccc2O[C@@H]1CN(C)Cc1ccc(C(=O)Nc2ccccc2N)cc1 | – | 7.56 µM
O=C1NC2C(=CC(O)C(O)C2O)c2cc3c(cc21)OCO3 (stereo not given) | – | 0.837 µM
CO[C@H]1CN(C)C(=O)c2cc(NC(=O)c3ccc(Oc4ccccc4)cc3)ccc2OC[C@H](C)NC[C@@H]1C | – | 12.3 µM
Cc1ccc(OCCNC(=O)c2cccc(S(=O)(=O)NCc3ccccc3)c2)cc1 | – | 4.65 µM
C[C@H]1CN([C@@H](C)CO)C(=O)c2cc(N(C)C)ccc2O[C@H]1CN(C)Cc1ccc(C(=O)Nc2ccccc2N)cc1 | – | 8.84 µM
O=c1[nH]c(=O)n([C@H]2C[C@H](O)[C@@H](CO)O2)cc1C(F)(F)F | – | 4.17 µM
COC1C(O)C(C)OC(OC2C(Oc3cccc4c(O)c5c(=O)oc6ccc(C)c7c(=O)oc(c34)c5c67)OC(C)C(O)C2O)C1O (stereo not given) | – | 6.33 µM
O=C1NC(=O)N(Cc2ccc(F)cc2)C(=O)/C1=C\C=C\c1ccco1 | – | 5.3 µM
C[C@H]1CN([C@@H](C)CO)C(=O)c2cc(NC(=O)C3CCCCC3)ccc2O[C@H]1CN(C)Cc1ccc(C(=O)Nc2ccccc2N)cc1 | – | 11.5 µM
CCC1=Nc2cc(C(=O)NCC3CCCO3)ccc2Sc2ccc(Br)cc21 (stereo not given) | – | 4.39 µM
C[C@H](CO)N1C[C@H](C)[C@H](CN(C)Cc2ccc(C(=O)Nc3ccccc3N)cc2)Oc2ccc(N(C)C)cc2CC1=O | – | 3.83 µM
CCOc1cc(/C=N/Nc2cc(C)nc(-n3nc(C)cc3C)n2)ccc1O | – | 1.77 µM
CCCCC[C@H](C)N1C[C@H](COCc2ccccc2)Oc2cc(N3CC[C@@H](N(C)C)C3)ccc2S1(=O)=O | – | 11.7 µM
CCOc1cc2[nH]c(=S)n(Cc3ccc(C(=O)N4CCN(C)CC4)cc3)c(=O)c2cc1OCC | – | 19.9 µM
Cc1cc(C)cc(N2C(=O)NC(=O)/C(=C\C=C\c3ccco3)C2=O)c1 | – | 3.84 µM
COC(=O)[C@H]1[C@H](CO)[C@H]2Cn3c(ccc(-c4ccccc4F)c3=O)[C@@H]1N2CC1CCCC1 | – | 17.4 µM
CC1(C)Oc2cc3oc(-c4cc(O)cc(O)c4)cc3cc2CC1O (stereo not given) | – | 21.7 µM
COc1ccc(C2=NNC(=Nc3cc(S(=O)(=O)N(C)C)ccc3C)SC2)c(OC)c1 | – | 20.5 µM
CCc1cccc2c(C(=O)CN3C(=O)NC4(CCCCC4)C3=O)c[nH]c12 | – | 8.95 µM
Nc1sc(-c2ccccc2)cc1-c1n[nH]c(=S)n1C1CCCCC1 | – | 6.83 µM
CN(C)c1ccc(/C=N/Nc2nc3ccccc3o2)cc1 | – | 20.9 µM

SMILES | activity change, negative = cytotoxicity [1] | AC35 [2]
Cc1ccc(C(=O)O/N=C(\N)c2ccccn2)cc1 | – | 17.7 µM
C[C@@H]1CCCCO[C@H](CN(C)Cc2ccc(C(=O)Nc3ccccc3N)cc2)[C@@H](C)CN([C@H](C)CO)C(=O)c2cc(NS(=O)(=O)c3ccc(Cl)cc3)ccc2O1 | – | 14.3 µM
C[C@@H]1CN([C@@H](C)CO)C(=O)Cc2cc(NC(=O)Nc3ccc(C(F)(F)F)cc3)ccc2O[C@@H]1CN(C)Cc1ccc(C(=O)Nc2ccccc2N)cc1 | – | 10.9 µM
C[C@H]1O[C@@H](O[C@H]2[C@@H](O)C[C@H](O[C@H]3[C@@H](O)C[C@H](O[C@H]4CC[C@@]5(C)[C@H](CC[C@@H]6[C@@H]5C[C@@H](O)[C@]5(C)[C@@H](C7=CC(=O)OC7)CC[C@]65O)C4)O[C@@H]3C)O[C@@H]2C)C[C@H](O)[C@@H]1O | – | 0.173 µM
C[C@@H]1CN([C@H](C)CO)C(=O)c2cc(NC(=O)CCCCCC(=O)Nc3ccccc3N)ccc2O[C@@H]1CN(C)Cc1ccc(Cl)c(Cl)c1 | – | 9.95 µM
N#C[C@H]1[C@H](c2ccc(-c3ccccc3F)cc2)[C@@H](CO)N1C(=O)c1ccccn1 | – | 14.5 µM
N#CC1=C(N)Oc2cc(N)ccc2C1c1cccc(F)c1 (stereo not given) | – | 3.12 µM
C[C@H]1CN([C@@H](C)CO)S(=O)(=O)c2ccc(C#Cc3ccncc3)cc2O[C@@H]1CN(C)S(=O)(=O)c1ccccc1 | – | 16.5 µM
C[C@@H]1CN([C@@H](C)CO)C(=O)c2cccc(NS(=O)(=O)c3ccc(Cl)cc3)c2O[C@@H]1CN(C)Cc1ccc(C(=O)Nc2ccccc2N)cc1 | – | 8.47 µM
C[C@@H]1CCCCO[C@H](CN(C)Cc2ccc(C(F)(F)F)cc2)[C@H](C)CN([C@H](C)CO)C(=O)c2cc(NC(=O)CCCN(C)C)ccc2O1 | – | 7.73 µM
Cc1c(Cc2ccc3c(c2)OCO3)sc(NC(=O)C(C)(C)C)c1C#N | – | 14.9 µM
C=C1C(=O)[C@@]23[C@H](O)C[C@@H]4C(C)(C)CC[C@H](O)[C@@]4(C)[C@@H]2CC[C@@H]1[C@H]3O | – | 3.15 µM
C[C@H](CO)N1C[C@H](C)[C@H](CN(C)Cc2ccc(C(=O)Nc3ccccc3N)cc2)Oc2ccc(N(C)C)cc2C1=O | – | 9.49 µM
C/C(=N\NC(=O)c1n[nH]c2c1CCC2)c1cccs1 | – | 19.3 µM
C=CCOc1ccccc1C(=O)/C=C1/C(=O)Nc2ccccc21 | – | 9.62 µM
O=C(NC(c1ccc(F)cc1)c1ccc2ccccc2n1)C1CCN(Cc2cccc(C(F)(F)F)c2)CC1 (stereo not given) | – | 14.6 µM
Nc1cc2c(cc1Br)[nH]c(=O)c1ccccc12 | – | 16.6 µM
CC1=NN(c2ccc(C)cc2)C(=O)/C1=C\C=C\c1ccccc1 | – | 7.95 µM
CC(=O)OC1CC(OC2C(O)CC(OC3C(O)CC(OC4CCC5(C)C(CCC6C5CC(O)C5(C)C(C7=CC(=O)OC7)CCC65O)C4)OC3C)OC2C)OC(C)C1OC1OC(CO)C(O)C(O)C1O (stereo not given) | – | 0.244 µM
COc1ccc(S(=O)(=O)N2CC[C@@H]3[C@H](CO)Nc4ccc(-c5ccc(C#N)cc5)cc4[C@@H]32)cc1 | – | 4.23 µM
C[C@H]1CN([C@@H](C)CO)C(=O)c2cccc(NC(=O)c3ccc(-c4nccs4)cc3)c2O[C@@H]1CN(C)Cc1ccc(C(=O)Nc2ccccc2N)cc1 | – | 18.1 µM
CN1C2CCC1/C(=C/c1ccccn1)C(=O)/C2=C\c1ccccn1 | – | 0.362 µM

SMILES | activity change, negative = cytotoxicity [1] | AC35 [2]
CC(C)(C)C(=O)Cn1ncc(Cl)c(Cl)c1=O | – | 2.73 µM
Nc1nc(N)c2c(ccc3nccc32)[nH]1 | – | 7.01 µM
C[C@@H]1CN([C@@H](C)CO)C(=O)Cc2cc(N(C)C)ccc2O[C@@H]1CN(C)Cc1ccccc1 | – | 14.4 µM
C#CCOCCOCCOCCNc1nc(N2CCN(C(=O)CCCCCCCCCCNC(=O)Cn3cc(C[C@@H](C)O)nn3)CC2)nc(N2CCN(C(=O)CCCCCCCCCCNC(=O)[C@H](CO)n3cc(CCCSC)nn3)CC2)n1 | – | 13.3 µM
O=C(CCc1ccccc1)NC(c1cccs1)c1cc(Cl)c2cccnc2c1O (stereo not given) | – | 0.694 µM
O=C(C[C@@H]1C[C@H]2c3cc(NS(=O)(=O)c4ccc(F)cc4)ccc3O[C@H]2[C@H](CO)O1)NCc1ccc(-c2ccccc2)cc1 | – | 4.21 µM
Cc1nn(-c2ccc(F)cc2)c2nc(N)c(C#N)c(-c3ccc(O)c(O)c3)c12 | – | 8.63 µM
CCOc1ccc(N=Nc2ccc(O)c3ncccc23)cc1 | – | 0.5 µM
C[C@H]1CN([C@@H](C)CO)C(=O)Cc2cc(NC(=O)C3CC3)ccc2O[C@H]1CN(C)S(=O)(=O)c1ccc(Cl)cc1 | – | 15.6 µM
Cc1ccc(C(C(=O)NCc2ccco2)N(C(=O)CNC(=O)c2cccs2)c2c(C)cc(C)cc2C)cc1 (stereo not given) | – | 14.6 µM
CC(C)(C)c1ccc(Oc2ccc(N)cn2)cc1 | – | 5.13 µM
COC(=O)C[C@H]1C=C[C@@H](NC(=O)Nc2ccc(C(F)(F)F)cc2)[C@H](CO)O1 | – | 21.6 µM
Cc1ccc2nc(-c3ccccc3)nn2c1 | – | 13.8 µM
Cc1ccc(/C=N/Nc2ccnc3cc(Cl)ccc23)c(C)c1 | – | 6.15 µM
C[C@H]1CCCCO[C@H](CN(C)Cc2ccc(C(F)(F)F)cc2)[C@@H](C)CN([C@@H](C)CO)C(=O)c2cc(NC(=O)Nc3ccccc3)ccc2O1 | – | 12.6 µM
CC(C)CC#Cc1ccc([C@@H]2[C@@H](CO)N3CCCCN(S(=O)(=O)c4ccc(F)cc4)C[C@H]23)cc1 | – | 8.8 µM
C[C@@H]1CN([C@@H](C)CO)C(=O)c2cc(NC(=O)c3ccccc3)ccc2O[C@@H](C)CCCCO[C@H]1CN(C)C(=O)Nc1cccc2ccccc12 | – | 0.62 µM
COc1cc2c(cc1OC)C(C)N(C(=O)c1cc(Cl)nc(Cl)c1)CC2 (stereo not given) | – | 12.1 µM
COc1cc(-c2noc(C)c2C#Cc2nccn2C)cc(OC)c1OC | – | 15.9 µM
